Target: T1, GLP-1R (Homo sapiens, UniProt P43220)
Assay: GLP-1R Activation - cAMP Assay 1
Type: cell-based
Details: cAMP increase in CHO cells stably expressing GLP-1R; 10-point dose response, 30 minutes incubation at 37° C.
Experimental: GLP-1R Activation—cAMP Assay 1
GLP-1R activation by a compound of the present disclosure was quantified by measuring cAMP increase in CHO cells stably expressing GLP-1R (MultiSpan product #C1267-1a). The cells were harvested and plated in growth medium (DMEM/F-12 (Corning product #10-090-CV) supplemented with 10% FBS (HyClone product #SH30071-03), penicillin/streptomycin (Corning product #30-002CI) and 10 µg/ml puromycin (Gibco product #A11138-03)) at 1,000 cells/well in a 384-well plate (Greiner product #781080). The cells were then incubated overnight at 37° C., 5% CO2. The next day, the medium was removed and the cells were washed with DPBS (Corning product #21-031-CM) before adding the assay medium (HBSS, Corning product #21-023-CV) with 20 mM Hepes (Gibco product #15630-080) and 0. 1% BSA (Rockland Immunochemicals product #BSA-1000)). Following the medium change, the cells were incubated for 1 hour at 37° C., 5% CO2. The tested GLP-1 compound was added to the cells in a 10-point dose response followed by a 30 minutes incubation at 37° C., 5% CO2. cAMP concentration increase was then detected using Cisbio's cAMP Gs Dynamic Kit (product #62AM4PEC) according to the manufacturer's protocol. The response was plotted against the log of the agonist concentration and fitted to a sigmoidal equation to determine the EC50.

T1 sequence (P43220 24-463): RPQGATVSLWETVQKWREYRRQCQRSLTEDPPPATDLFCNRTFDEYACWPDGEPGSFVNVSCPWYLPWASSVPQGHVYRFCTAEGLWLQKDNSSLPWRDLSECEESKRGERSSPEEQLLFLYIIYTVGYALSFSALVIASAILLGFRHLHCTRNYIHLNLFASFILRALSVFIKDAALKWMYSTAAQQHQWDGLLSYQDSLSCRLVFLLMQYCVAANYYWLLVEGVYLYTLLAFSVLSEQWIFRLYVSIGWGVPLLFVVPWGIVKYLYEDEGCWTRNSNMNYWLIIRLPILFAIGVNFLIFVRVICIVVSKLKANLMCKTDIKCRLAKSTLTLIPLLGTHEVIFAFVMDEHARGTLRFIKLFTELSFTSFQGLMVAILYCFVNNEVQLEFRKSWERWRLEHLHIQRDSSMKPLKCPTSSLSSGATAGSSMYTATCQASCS

Row | EC50 [nM] | SMILES
1 | 166 | COCCn1c(CN2CCC(c3cccc(OCc4sc(C#N)cc4F)n3)CC2)nc2ccc(C(=O)O)cc21 [Example 1, 2-((4-(6-((5-cyano-3-fluorothiophen-2-yl)methoxy)pyridin-2-yl)piperidin-1-yl)methyl)-1-(2-methoxyethyl)-1H-benzo[d]imidazole-6-carboxylic acid]
2 | 47.3 | COCCn1c(CN2CCC(c3cccc(OCc4ccc(C#N)s4)n3)CC2)nc2ccc(C(=O)O)cc21 [Example 2, 2-((4-(6-((5-cyanothiophen-2-yl)methoxy)pyridin-2-yl)piperidin-1-yl)methyl)-1-(2-methoxyethyl)-1H-benzo[d]imidazole-6-carboxylic acid]
3 | 307 | COCCn1c(CN2CCC(c3cccc(OCc4cnc(Cl)s4)n3)CC2)nc2ccc(C(=O)O)cc21 [Example 3, 2-[[4-[6-[(2-chlorothiazol-5-yl)methoxy]-2-pyridyl]-1-piperidyl]methyl]-3-(2-methoxyethyl)benzimidazole-5-carboxylic acid]
4 | 294 | COCCn1c(CN2CCC(c3cccc(OCc4nnc(Cl)s4)n3)CC2)nc2ccc(C(=O)O)cc21 [Example 4]
5 | 831 | COCCn1c(CN2CCC(c3cccc(OCc4ccsc4)n3)CC2)nc2ccc(C(=O)O)cc21 [Example 12, 1-(2-methoxyethyl)-2-((4-(6-(thiophen-3-ylmethoxy)pyridin-2-yl)piperidin-1-yl)methyl)-1H-benzo[d]imidazole-6-carboxylic acid]
6 | 869 | COCCn1c(CN2CCC(c3cccc(OCc4nccs4)n3)CC2)nc2ccc(C(=O)O)cc21 [Example 18, 1-(2-methoxyethyl)-2-((4-(6-(thiazol-2-ylmethoxy)pyridin-2-yl)piperidin-1-yl)methyl)-1H-benzo[d]imidazole-6-carboxylic acid]
7 | 5900 | COCCn1c(CN2CCC(c3cccc(OCc4cscn4)n3)CC2)nc2ccc(C(=O)O)cc21 [Example 19, 1-(2-methoxyethyl)-2-((4-(6-(thiazol-4-ylmethoxy)pyridin-2-yl)piperidin-1-yl)methyl)-1H-benzo[d]imidazole-6-carboxylic acid]
8 | 4350 | COCCn1c(CN2CCC(c3cccc(OCc4cnn(C)n4)n3)CC2)nc2ccc(C(=O)O)cc21 [Example 20, 1-(2-methoxyethyl)-2-((4-(6-((2-methyl-2H-1,2,3-triazol-4-yl)methoxy)pyridin-2-yl)piperidin-1-yl)methyl)-1H-benzo[d]imidazole-6-carboxylic acid]

The next lines start with the compound.

Row | SMILES | EC50 [nM]
9 | COCCn1c(CN2CCC(c3cccc(OCc4csc5cc(Cl)ccc45)n3)CC2)nc2ccc(C(=O)O)cc21 [Example 11, 2-((4-(6-((6-chlorobenzo[b]thiophen-3-yl)methoxy)pyridin-2-yl)piperidin-1-yl)methyl)-1-(2-methoxyethyl)-1H-benzo[d]imidazole-6-carboxylic acid] | 156
10 | COCCn1c(CN2CCC(c3cccc(OCc4csc5ccccc45)n3)CC2)nc2ccc(C(=O)O)cc21 [Example 13, 2-((4-(6-(benzo[b]thiophen-3-ylmethoxy)pyridin-2-yl)piperidin-1-yl)methyl)-1-(2-methoxyethyl)-1H-benzo] | 197

Target: T1, GLP-1R
Assay: GLP-1R Activation - cAMP Assay 2
Type: cell-based
Details: not given
Experimental: GLP-1R Activation—cAMP Assay 2 GLP-1R activation by small molecule agonists is quantified by measuring cAMP increase in CHO cells stably expressing GLP-1R (MultiSpan product #C1267-1a). 50 nL of agonists are pre-spotted in a 10-point dose response onto 384-well plate (Corning product #CL3826) using the Labcyte Echo System. […] The cells are then incubated for 30 minutes at 37° C., 5% CO2. cAMP concentration increase is then detected using Cisbio's cAMP Gs Dynamic Kit (product #62AM4PEC) according to the manufacturer's protocol. The response is plotted against the log of the agonist concentration and fitted to a sigmoidal equation to determine the EC50.

Row | EC50 [nM] | SMILES
11 | 0.9 | N#Cc1ccc(COc2cccc(C3CCN(Cc4nc5ccc(C(=O)O)cc5n4C[C@@H]4CCO4)CC3)n2)s1 [Example 6, (S)-2-((4-(6-((5-cyanothiophen-2-yl)methoxy)pyridin-2-yl)piperidin-1-yl)methyl)-1-(oxetan-2-ylmethyl)-1H-benzo[d]imidazole-6-carboxylic acid]

Same assay, conditions: cAMP increase in CHO cells stably expressing GLP-1R; pre-spotted agonists, assay buffer or 100% Human Plasma (not stated which), 30 minutes at 37° C.; read-out: GLP-1R Activation- Assay 2 EC50 (nm)

Row | EC50 [nM] | SMILES
12 | > 100 | Cn1ccc(COc2cccc(C3CCN(Cc4nc5ccc(C(=O)O)cc5n4C[C@@H]4CCO4)CC3)n2)n1 [Example 5, (S)-2-((4-(6-((1-methyl-1H-pyrazol-3-yl)methoxy)pyridin-2-yl)piperidin-1-yl)methyl)-1-(oxetan-2-ylmethyl)-1H-benzo[d]imidazole-6-carboxylic acid]
13 | 36.5 | NC(=O)c1ccc(COc2cccc(C3CCN(Cc4nc5ccc(C(=O)O)cc5n4C[C@@H]4CCO4)CC3)n2)s1 [Example 7, (S)-2-((4-(6-((5-carbamoylthiophen-2-yl)methoxy)pyridin-2-yl)piperidin-1-yl)methyl)-1-(oxetan-2-ylmethyl)-1H-benzo[d]imidazole-6-carboxylic acid]
14 | 21.5 | O=C(O)c1ccc2nc(CN3CCC(c4cccc(OCc5ccn(C(F)F)n5)n4)CC3)n(C[C@@H]3CCO3)c2c1 [Example 8, (S)-2-((4-(6-((1-(difluoromethyl)-1H-pyrazol-3-yl)methoxy)pyridin-2-yl)piperidin-1-yl)methyl)-1-(oxetan-2-ylmethyl)-1H-benzo[d]imidazole-6-carboxylic acid]
15 | 3.3 | Cn1cc(C#Cc2ccc(COc3cccc(C4CCN(Cc5nc6ccc(C(=O)O)cc6n5C[C@@H]5CCO5)CC4)n3)s2)cn1 [Example 9, 2-[[4-[6-[[5-[2-(1-methylpyrazol-4-yl)ethynyl]-2-thienyl]methoxy]-2-pyridyl]-1-piperidyl]methyl]-3-[[(2S)-oxetan-2-yl]methyl]benzimidazole-5-carboxylic acid]
16 | 0.4 | O=C(O)c1ccc2nc(Cc3cc(F)c(-c4cccc(OCc5cc(C(F)(F)F)cs5)n4)cc3F)n(C[C@@H]3CCO3)c2c1 [Example 10, 2-[[2,5-difluoro-4-[6-[[4-(trifluoromethyl)-2-thienyl]methoxy]-2-pyridyl]phenyl]methyl]-3-[[(2S)-oxetan-2-yl]methyl]benzimidazole-5-carboxylic acid]
17 | 1.8 | O=C(O)c1ccc2nc(CN3CCC(c4cccc(OCc5ncc(C(F)(F)F)s5)n4)CC3)n(C[C@@H]3CCO3)c2c1 [Example 14, (S)-1-(oxetan-2-ylmethyl)-2-((4-(6-((5-(trifluoromethyl)thiazol-2-yl)methoxy)pyridin-2-yl)piperidin-1-yl)methyl)-1H-benzo[d]imidazole-6-carboxylic acid]
18 | 5.2 | O=C(O)c1ccc2nc(CN3CCC(c4cccc(OCc5nc(C(F)(F)F)cs5)n4)CC3)n(C[C@@H]3CCO3)c2c1 [Example 15, (S)-1-(oxetan-2-ylmethyl)-2-((4-(6-((4-(trifluoromethyl)thiazol-2-yl)methoxy)pyridin-2-yl)piperidin-1-yl)methyl)-1H-benzo[d]imidazole-6-carboxylic acid]
19 | 4.1 | O=C(O)c1ccc2nc(CN3CCC(c4cccc(OCc5cc(C(F)(F)F)cs5)n4)CC3)n(C[C@@H]3CCO3)c2c1 [Example 16, (S)-1-(oxetan-2-ylmethyl)-2-((4-(6-((4-(trifluoromethyl)thiophen-2-yl)methoxy)pyridin-2-yl)piperidin-1-yl)methyl)-1H-benzo[d]imidazole-6-carboxylic acid]
20 | 24.1 | N#Cc1cnc(COc2cccc(C3CCN(Cc4nc5ccc(C(=O)O)cc5n4C[C@@H]4CCO4)CC3)n2)s1 [Example 17, (S)-2-((4-(6-((5-cyanothiazol-2-yl)methoxy)pyridin-2-yl)piperidin-1-yl)methyl)-1-(oxetan-2-ylmethyl)-1H-benzo[d]imidazole-6-carboxylic acid]
